Converted amounts (≈) assume the structure as drawn.
Tested on: red blood cells (RBC)
Assay: CAP-e assay (RBC treated with test sample, washed, lysed; CM-H2DCFDA fluorescence after oxidative challenge)
Type: cell-based, human
Conditions: for inhibition of oxidative damage: hydroxyl free radical generator H2O2 compared with peroxyl free radical generator AAPH: dose response curves, FIG. 2 and FIG. 3
Description: Whole blood was collected from healthy volunteers. A double density gradient was prepared, where 3 ml of HISTOPAQUE® 1099 was overlaid with 3 ml of HISTOPAQUE® 1077. 5-6 ml of whole anticoagulated blood was layered on top of the double gradient and centrifuged for 25 minutes at 2400 rpm. The plasma, peripheral blood mononuclear cells, polymorphonuclear cells, and HISTOPAQUE® were removed using a transfer pipette. The remaining packed red blood cell fraction was washed three times in 10-14 ml PBS by centrifugation at 2400 rpm for 10 minutes. After the third wash the supernatant was removed, and the packed RBC were aliquoted for storage by pipetting 200 μl packed RBC into 10 ml PBS. The RBC aliquots were stored at 4-8° C. until use. The cells were used the same day or after up to 120 days of storage. For most routine testing, the RBC were typically prepared 2-4 weeks before use.
The antioxidant standard gallic acid (GA) was prepared by dissolving 85 mg of GA in 0.5 ml of 99.95% methanol. 0.2 ml of the dissolved GA was immediately diluted in 49.8 ml of PBS. Serial five-fold dilutions of the GA solution were prepared in PBS.
The serial dilutions of the extract and the GA standard were aliquoted in duplicate in a deep-well microplate. 100 μl of the RBC suspension was added to each well. The plate was incubated for 20 minutes at room temperature in the dark. Unabsorbed antioxidants were removed by washing the RBC three times in PBS by centrifugation for 2.5 minutes at 2400 rpm. The RBC pellets were lysed by incubation in 0.08 ml distilled water for 5 minutes at room temperature.
The fluorescent probe was prepared by reconstituting 50 μg CM-H2DCFDA in 0.2 ml anhydrous dimethyl sulfoxide, which was then added to 7.5 ml PS. After lysis of RBC was complete 70 μl of the lysed RBC were transferred to a black microplate and 50 μl of CM-H2DCFDA was added to each well (16.25 μM CM-H2DCFDA). The microplate was incubated for 20 minutes at room temperature or 37° C. in the dark. Then 50 μl H2O2 (0.0004% final concentration) or 50 μl AAPH (1 mg/ml final concentration) was added to each well. Wells exposed to H2O2 were incubated for 5 minutes at room temperature in the dark. Wells exposed to AAPH were incubated for one hour at room temperature or 37° C. in the dark. Fluorescence intensity was measured in a Tecan Spectrafluor fluorescence plate reader with excitation at 485 nm and emission at 535 nm.
Negative controls were RBC which were not treated with a test sample or standard and were not exposed to an oxidative challenge. Positive controls were RBC which were not treated with a test sample or standard, but were exposed to an oxidative challenge. The percent inhibition of oxidative damage was calculated as [(fluorescence intensity of RBC treated with free radical generator−fluorescence intensity of RBC treated with test sample and free radical generator)/(fluorescence intensity of RBC treated with free radical generator−fluorescence intensity of untreated RBC)]×100.
The CAP-e value of a given test product is based on the comparison of the dose-response of inhibition of oxidative damage between the standard gallic acid (GA) and the test sample. For each test sample or compound, the IC50 for inhibition of oxidative damage is calculated. […] The CAP-e units of GA was set as 1,000 Gallic Acid Equivalents (GAE). […] The CAP-e value was expressed as CAP-e units/g of sample.

Row | Structure (SMILES) | protection of RBC from damage from both free radical generators (H2O2 and AAPH, at higher concentrations) | inhibition of oxidative damage: hydroxyl free radical generator H2O2 compared with peroxyl free radical generator AAPH | IC50 (Homo sapiens, Erythrocyte, determined from more than 60 independent experiments, read-out: IC50 for inhibition of oxidative damage) [µg/mL] | amount needed for the same level of protection, RBC from older person versus younger person (RBC from a person over 85 years versus under 50 years of age, H2O2, FIG. 11)
1 | Cc1c(C)c2c(c(C)c1O)CCC(C)(C(=O)O)O2 (centres unmarked) [TROLOX®, 6-hydroxy-2,5,7,8-tetramethylchroman-2-carboxylic acid] | protected RBC from damage | more effective against hydroxyl free radicals at lower concentrations | – | –
2 | O=C(O)c1cc(O)c(O)c(O)c1 [GA, gallic acid] | – | equally effective | 32 (≈ 188 µM) | More GA was required

— patent US9134245B2, “Cell-based antioxidant protection assay” (Natural Immune Systems, Inc., priority 2007, dated 2015)
